We go through 30 molecules from patent US20060252698A1, “Compounds for inhibiting cathepsin activity” (priority 2005, published 2006).

pKi: −log10 of the molar value. Starred links: 1 amine or outer side, 2 acyl side, 3 side chain; linkers in the order of their positions; H or OH if unused. Non-standard residues stand in square brackets, D forms with d. Residues, ends and D or L forms follow the SMILES beside them. *: point of attachment. Pro(3S,4R-methano) = O=C(O)[C@H]1NC[C@@H]2C[C@@H]21; X3 = C=CCCC(N[*:1])C(=O)C(=O)[*:2]; Chg = N[C@H](C(=O)O)C1CCCCC1; Phg = N[C@H](C(=O)O)c1ccccc1; Boc = CC(C)(C)OC(=O)*

T1 sequence (P07711 114-288 limits assumed): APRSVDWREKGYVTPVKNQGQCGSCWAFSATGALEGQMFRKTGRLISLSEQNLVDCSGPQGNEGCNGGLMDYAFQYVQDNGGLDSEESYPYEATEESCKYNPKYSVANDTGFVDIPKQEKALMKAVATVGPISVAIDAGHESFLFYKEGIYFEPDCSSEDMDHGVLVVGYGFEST
T1 sequence (P07711 292-333 limits assumed): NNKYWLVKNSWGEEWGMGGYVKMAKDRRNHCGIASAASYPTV

This experiment has as its target T1, Human Liver Cathepsin L (Homo sapiens, UniProt P07711).
T1 construct: purchased Calbiochem 219402
Description: Cathepsin L inhibition assay (kinetic, Z-Phe-Arg-pNA substrate). Type of experiment: biochemical. Conditions: Z-Phe-Arg-pNA 120 μM, enzyme 12 nM, pH 5.5, read at 410 nm. As to the method: Cathepsin Assay Protocols:
• 1. 96-well Round or V-bottom microplates for dilutions • 2. 96-well COSTAR UV microplates for assay (COSTAR cat.#3635) • 3. Bio-Spin 6 Chromatography Columns (BIO-RAD cat.#732-6002). • 4. 12-75 mm test tubes • 5. Falcon 50 ml tubes • 6. Falcon 14 ml tubes • 7. 1.5 ml eppendorf tube • 8. ≦10 ml buffer reservoir Reagents: • 1. Enzyme: Cathepsin G, M.W.23,500, 10 μM stock. • 2. Substrate:Suc-Ala-Ala-Pro-Phe-pNA, M.W. 624.65, prep. 100 mM [62.465 mg/ml] stock. • 3. Buffer: [50 mM HEPES, 500 mM NaCl, 5 μM EDTA, pH 7.14], 5 μM DTT Instrument Settings: SpectraMax Plus • 1. Kinetic assay reading@405 nm • 2. Read interval: 30 seconds • 3. Time: 1 hour • 4. OD Min: −0.001 • 5. OD Max: 0.5 • 6. Data Mode: Absorbance • 7. e405=194.078 μM/O.D. Procedure: • 1. Add 73 μl of buffer to all wells. • 2. Add […] of buffer to (−E) controls. • 3. Add 7 μl of sample and/or DMSO for controls to appropriate wells. • 4. Prep. substrate: 100 mM (62.465 mg/ml) stock in 100% DMSO. • 5. Dilute 1:20 in buffer. 75 μl in 1.425 ml. 5 mM final. • 6. Add 20 μl of 5 mM substrate to all wells. 500 μM final. • 7. Dilute enzyme (1:50) in buffer; Add 120 μl to 5,880 μl buffer. 2×[200 nM] final. • 8. Add 100 μl of 2× [200 nM] enzyme to assigned wells, except (−E) controls. [100 nM] final. • 11. Vortex 20 seconds. Read@ 405 nM every 30 seconds for 1 hour on SpectraMax Plus • Endpoint assay reading plate@ 600 nM. Used for the detection of precipitation. Cathepsin H: Materials: • 1. 96-well Round or V-bottom microplates for dilutions • 2. 96-well COSTAR UV microplates for assay (COSTAR cat.#3635) • 3. Bio-Spin 6 Chromatography Columns (BIO-RAD cat.#732-6002) • 4. 12-75 mm test tubes • 5. Falcon 50 ml tubes • 6. Falcon 14 ml tubes • 7. 1.5 ml eppendorf tube • 8. ≧10 ml buffer reservoir Reagents: • 1. Enzyme: Cathepsin H, M.W.28,000, 9.07 μM stock. • 2. Substrate:H-Arg-pNA, M.W. 367.2, prep. 50 mM [18.36 mg/ml] stock. • 3. Buffer: [100 mM NaP04, 1 mM EDTA, 1 mM DTT, pH 6.5 Instrument Settings: SpectraMax Plus • 1. Kinetic assay reading@410 nM • 2. Read interval: 30 seconds • 3. Time: 1 hour • 4. OD Min: −0.001 • 5. OD Max: 0.05 • 6. Data Mode: Absorbance • 7. e410=188.415 μM/O.D. Km=108±5 μM Procedure: • 1. Prep. substrate: 50 mM (18.36 mg/ml) stock in 100% DMSO. • 2. Add 73 μl of buffer to all wells. • 3. Add 7 μl of sample to appropriate wells: a.) 100% DMSO for (+E) & (−E) controls. • 4. Add 100 μl of buffer to (−E) controls. • 5. Dilute substrate (1:20) in buffer; Add 140 μl to 2.66 ml buffer while vortexing. [2.5 mM] final. • 6. Add 20 μl of substrate to all wells. Vortex 3-5 seconds. [250 μM] final. • 7. Dilute enzyme (1:64.8) in buffer; Add 179 μl to 11.418 ml buffer. 2× [140 nM] final. • 8. Add 100 μl of 2× [140 nM] enzyme to assigned wells, except (−E) controls. [70 nM] final. • 9. Read@410 nM every 30 seconds for 1 hour on SpectraMax Plus Cathepsin L: Materials: • 1. 96-well Round or V-bottom microplates for dilutions • 2. 96-well COSTAR UV microplates for assay (COSTAR cat.#3635) • 3. Falcon 50 ml tubes • 4. Falcon 14 ml tubes • 5. 1.5 ml eppendorf tube • 6. 10 ml buffer reservoir Reagents: • 1. Enzyme: Calbiochem #219402: Cathepsin L, M.W.29,000, 11.62 μM stock. Lot#B45683 • 2. Substrate: Bachem #L-1242: Z-Phe-Arg-pNA, M.W. 612.09, prep. 4.8 mM [2.938 mg/ml] stock in 100% DMSO. • 3. Buffer: [100 mM NaP04, 1 mM EDTA, pH 5.5] Supplement buffer w/1 mM DTT, day of assay. Experiment #1: • Instrument settings: SpectraMax Plus microtiter plate reader (Molecular Devices, Sunnydale, Calif.) • 1. Kinetic assay reading@410 nM • 2. Read interval: 30 seconds • 3. Time: 1 hour • 4. OD Min: −0.001 • 5. OD Max: 0.05 • 6. Data Mode: Absorbance • 7. ε410=161.311 μM/O.D. Km=56±8 μM Procedure: • 1. Add 88 μl of buffer to all wells. • 2. Add 7 μl of sample or 100% DMSO to appropriate wells. • 3. Add 100 μl of buffer to (−E) controls. • 5. Add 5 μ 4.8 mM] substrate to all wells. [120 μM] final. • 6. Vortex 3-5 seconds. • 7. Dilute enzyme (1:483.87) in buffer; Add 24.8 μl to 12,000 μl buffer. 2×[24 nM] final. • 8. […]
For `CC(C)(C)OC(=O)N[C@H]1CCCCCCCC[C@@H](C(=O)C(N)=O)NC(=O)[C@@H]2[C@@H]3[C@H](CN2C1=O)C3(C)C`, the pKi was 6.26.

`CCCC[C@H](NC(=O)[C@@H]1[C@@H]2[C@H](CN1C(=O)[C@@H](NC(=O)NC1([C@H]3CCCS3(=O)=O)CCCCC1)C1(C)CCCCC1)C2(C)C)C(=O)C(=O)NC1CC1` showed a pKi of 7.70. This pKi is 1.44 log units higher than that of the molecule before.

On to `C=CCNC(=O)C(=O)[C@@H]1CCCCCCCCC[C@H](NC(=O)NC2(CS(=O)(=O)C(C)(C)C)CCCCC2)C(=O)N2C[C@H]3[C@@H]([C@H]2C(=O)N1)C3(C)C` [drawing 699], for which the pKi was 7.22.

`CCCNC(=O)C(=O)[C@@H]1CCCCCCCCC[C@H](NC(=O)NC2(CS(=O)(=O)C(C)(C)C)CCCCC2)C(=O)N2C[C@H]3[C@@H]([C@H]2C(=O)N1)C3(C)C` showed a pKi of 6.48.

In the case of `CCCC(NC(=O)[C@@H]1C[C@@H]2CN1C(=O)C(C1CCCCC1)NC(=O)Cc1cccc(c1)OCCCC(C)(C)C2)C(=O)C(N)=O` (stereo partly drawn), the pKi is 7.77.

`CC(=O)N[C@@H](CC(C)C)C(=O)N[C@@H](CC(C)C)C(=O)N[C@H](C=O)CCCNC(=N)N` [drawing 689] gave a pKi of 8.10.

`CC1C[C@H]2CN(C(=O)[C@@H](NC(=O)OC(C)(C)C)C3CCCCC3)[C@H](C(=O)NC(CC3CC3)C(=O)C(=O)NCC(=O)N[C@H](C(=O)N(C)C)c3ccccc3)[C@H]2C1` (stereo partly drawn) gave a pKi of 6.92. This pKi lies 1.18 log units lower than the previous one.

The molecule `CCCC[C@H](NC(=O)[C@@H]1[C@@H]2[C@H](CN1C(=O)[C@@H](NC(=O)NC1(CS(=O)(=O)C(C)C)CCCCC1)C(C)(C)C)C2(C)C)C(=O)C(=O)NC1CC1` showed a pKi of 7.42.

The molecule `CN(C[C@@H](NC(=O)N[C@H](C(=O)N1C[C@H]2[C@@H]([C@H]1C(=O)N[C@@H](CC(F)F)C(=O)N[C@@H]1C[C@@H]1c1ccccc1)C2(C)C)C(C)(C)C)C(C)(C)C)S(C)(=O)=O` had a pKi of 6.28.

Take `CCCC[C@H](NC(=O)[C@@H]1[C@@H]2[C@H](CN1C(=O)[C@@H](NC(=O)NC1([C@H]3CCCS3(=O)=O)CCCCC1)C(C)(C)C)C2(C)C)C(=O)C(=O)NC1CC1`: the pKi is 7.10.

For the molecule `CC1(C)C2CN(C(=O)[C@@H](NC(=O)NC3CCCCC3)C(C)(C)C)[C@H](C(=O)NC(CC3CCC3)C(=O)C(N)=O)C21` (stereo partly drawn), the pKi is 7.20. This pKi and that of the molecule before are within 0.2 log units of each other.

The molecule `CC(C)(C)OC(=O)N[C@H](C(=O)N1CC2CCCC2[C@H]1C(=O)NC(CC1CC1)C(=O)C(N)=O)C1CCCCC1` (stereo partly drawn) had a pKi of 7.85.

In the case of `C=CCNC(=O)C(=O)[C@@H]1CCCCCCCCC[C@H](NC(=O)NC2(CS(=O)(=O)C(C)(C)CC)CCCCC2)C(=O)N2C[C@H]3[C@@H]([C@H]2C(=O)N1)C3(C)C`, the pKi is 6.64.

Consider `C=CCNC(=O)C(=O)[C@@H]1CCCCCCCCC[C@H](NC(=O)N[C@H](CN(C)S(=O)(=O)N(C)C)C(C)(C)C)C(=O)N2C[C@H]3[C@@H]([C@H]2C(=O)N1)C3(C)C`, for which the pKi is 6.43.

Regarding `CCCC[C@H](NC(=O)[C@@H]1[C@@H]2[C@H](CN1C(=O)[C@@H](NC(=O)NC1([C@H]3CCN(C)S3(=O)=O)CCCCC1)C(C)(C)C)C2(C)C)C(=O)C(=O)NC1CC1`, the pKi is 7.40. This pKi lies 0.97 log units higher than the previous one.

As for `C=CCNC(=O)C(=O)[C@H](CCCC)NC(=O)[C@@H]1[C@@H]2[C@H](CN1C(=O)[C@@H](NC(=O)NC1([C@H]3CCCS3(=O)=O)CCCCC1)C(C)(C)C)C2(C)C` [drawing 672], the pKi was 7.31.

`C=CCCC(NC(=O)[C@H]1C(C(=O)[C@@H](NC(=O)OC(C)(C)C)C2CCCCC2)C[C@@H]2C[C@@H]21)C(=O)C(=O)NCC=C` (stereo partly drawn) showed a pKi of 5.82.

As to `CC1([C@H](NC(=O)NC2(CS(=O)(=O)C(C)(C)C)CCCCC2)C(=O)N2C[C@H]3[C@@H]([C@H]2C(=O)N[C@@H](CCC2CC2)C(=O)C(=O)NC2CC2)C3(C)C)CCCCC1`, the pKi is 7.92.

For `CC(C)(C)NC(=O)N[C@H](C(=O)N1C[C@H]2[C@@H]([C@H]1C(=O)NC(CC1CCC1)C(=O)C(N)=O)C2(C)C)C(C)(C)C` (stereo partly drawn), the pKi was 7.12.

In the case of `CN(C[C@@H](NC(=O)N[C@H](C(=O)N1C[C@H](OC(C)(C)C)C[C@H]1C(=O)NC(CC1CCC1)C(=O)C(N)=O)C1CCCCC1)C(C)(C)C)S(C)(=O)=O` (stereo partly drawn), the pKi is 6.96.

`CC(C)C[C@@H](C(=O)NC(CC1CC1)C(=O)C(N)=O)C1CCCCCC[C@H](NC(=O)OC(C)(C)C)C1=O` (stereo partly drawn): the pKi is 7.60.

The molecule `CCCC(NC(=O)[C@@H]1[C@@H]2CCN1C(=O)[C@H](C(C)(C)C)NC(=O)Cc1cccc(c1)OCCCO2)C(=O)C(=O)NCC(=O)N[C@H](C(=O)N(C)C)c1ccccc1` (stereo partly drawn) had a pKi of 7.15.

Take `CCCC(NC(=O)[C@@H]1Cc2ccc3cc2CN1C(=O)[C@H](C1CCCCC1)NC(=O)CCCCCCO3)C(=O)C(N)=O` (stereo partly drawn): the pKi is 7.10.

As for `C=CCCC(NC(=O)[C@@H]1[C@H]2C[C@H]2CN1C(=O)[C@@H](NC(=O)OC(C)(C)C)C1CCCCC1)C(=O)C(=O)NCC(=O)N[C@H](C(=O)N(C)C)c1ccccc1` (stereo partly drawn) (Boc-[Chg][Pro(3S,4R-methano)][X3]G[Phg]-NMe2), the pKi was 6.57.

With `CC(C)(C)OC(=O)N[C@H](C(=O)N1c2ccccc2C[C@H]1C(=O)NC(CC1CC1)C(=O)C(N)=O)C1CCCCC1` (stereo partly drawn), the pKi is 7.70.

Consider `CC1(C)CC(=O)N(C[C@@H](NC(=O)N[C@H]2CCCCCCCCC[C@@H](C(=O)C(=O)NC3CC3)NC(=O)[C@@H]3[C@@H]4[C@H](CN3C2=O)C4(C)C)C(C)(C)C)C(=O)C1`, for which the pKi was 6.60.

In turn, `CC(=O)N[C@@H](CC(C)C)C(=O)N[C@@H](CC(C)C)C(=O)N[C@H](C=O)CCCNC(=N)N` [drawing 710] showed a pKi of 8.32.

Regarding `CCC1C[C@]1(NC(=O)[C@@H]1C[C@H](Oc2cc(-c3ccccc3)nc3cc(OC)ccc23)CN1C(=O)[C@@H](NC(=O)OC(C)(C)C)C(C)C)C(=O)O` (stereo partly drawn), the pKi was 7.00.

Take `C=CCNC(=O)C(=O)C(CC1CC1)NC(=O)[C@@H]1[C@H]2C(c3ccccc3)[C@H]2CN1C(=O)[C@@H](NC(=O)NC1(CS(=O)(=O)C(C)(C)C)CCCCC1)C(C)(C)C` (stereo partly drawn): the pKi is 6.46.

`C=CCNC(=O)C(=O)[C@H](CCC1CC1)NC(=O)[C@@H]1[C@@H]2[C@H](CN1C(=O)[C@@H](NC(=O)NC1(CS(=O)(=O)C(C)(C)C)CCCCC1)C(C)(C)C)C2(C)C` [drawing 669] gave a pKi of 7.40.

Broadly, the pKi is the negative decadic logarithm of the Ki, by convention in mol/L. Read a high pKi as a small Ki.
